The nature of series [1]: NOAEL for HMB oral ingestion in rats (Baxter et al.). The note with it: for estimated human equivalent dose of rat NOAEL: in vivo, oral; for estimated human equivalent of NOAEL as total amount: assuming a body weight of 150 lbs. It counts as in vivo, rat. Here is the method: This is an estimated human equivalent of 558 mg/kg and 665 mg/kg for men and women, respectively; assuming a body weight of 150 lbs equates to 38 g (males) and 45 g (females). […] Overall, standard doses of HMB appear to be well-tolerated over long periods of time.

The test system of a further series is rats. The note with it: oral ingestion, cited from earlier work.
For series [2] the following is noted: in vivo; cited from earlier work.
Series [3] concerns patients with statin-induced myopathy (SIM). Nature of the series: Example 1: HMB and leucic acid combination therapy in patients with statin-induced myopathy. It counts as in vivo, human. As to conditions: two patients with SIM on statin, summary. Here is the method:
The effects of combined administration of HMB and leucic acid was studied in two patients with statin-induced myopathy (SIM). Both patients enrolled were under the care of a board certified cardiologist. […] person with a history of PCI/coronary stent ramus intermedius; historically statin intolerant lipid disorder with LDL=168, total cholesterol=281, with triglycerides=316 on a hypolipidemic regimen of Welchol, 6 tabs/d (for a total of 1500-3000 mg/d) and Zetia, 10 mg/d; unable to achieve goal (i.e., LDL cholesterol <100 mg % in patients with coronary risk factors and <70 mg % in coronary patients (with previous myocardial infarction (MI), percutaneous coronary intervention (PCI), or coronary bypass surgery) as well as patients with peripheral vascular disease and diabetics) off statins and therefore begun on Vytorin, 10/40 mg daily+3-hydroxy 3-methyl butyrate (HMB) at 2 grams BID. […] person with angiographic small vessel disease; type 2 diabetes and type 2a hyperlipidemia; history of statin intolerance with myalgia, weakness and severely elevated CPKs (900-1000 range, normal 200); patient therefore treated with Welchol 6 grams/d and Zetia 10 mg/d with an LDL=185 on this regimen. The patient was subsequently placed on Crestor 20 mg/d+HMB 2 grams BID with a drop in LDL=49 and improved CPK levels (300-400 range).

In another series the test system is Human. The note with it: cited from earlier work.
The conditions of series [4]: towards oxygenation in humans; cited from earlier work.

Where two headings read alike, the source gives them in different places.

As for `CC(C)(O)CC(=O)O` [HMB, β-hydroxy β-methylbutyrate], the estimated human equivalent dose of rat NOAEL was 665 mg/kg in series [1] (female, women) and 558 mg/kg in series [1] (male, men). In addition, the “estimated human equivalent of NOAEL as total amount” value in series [1] (females) is recorded as 45 g; in series [1] (males), 38 g. For the same compound, the “No Observed Adverse Effect Level (NOAEL)” value was 4160 mg/kg in the series on rats (female rats) and 3490 mg/kg in the series on rats (male rats). The half-lives entry in series [2] is “relatively short”. For the same compound, the “time to reach peak levels” value in series [2] is “quickly”. The “resolution of SIM” value in series [3] is reported as “incomplete resolution of SIM”. In addition, the “toxicological parameters in serum” value in the series on Human (3 g HMB daily for up to 8 weeks, youth and older persons) is on record as “failed to alter toxicological parameters in serum”. Further, the “safety of long-term administration” value in the series on Human (3 g daily, one year of administration) is given as “safe”. Further, the “toxic effects on serum parameters” value with Human (approximately 6 g HMB daily (78 mg/kg) for one month, untrained young males subject to exercise) is on record as “did not show any toxic effects”. Further, in the series with Human (half the dose (of approximately 6 g daily), considered to be insignificant), the basophils result was “spontaneous increase in basophils”. Moreover, the tolerability entry with Human (standard doses over long periods of time) is recorded as “well-tolerated”.
Consider `CC(C)CC(O)C(=O)O` (centres unmarked) [leucic acid, 2-hydroxy-4-methylpentanoic acid], for which, in series [2], the half-lives result was “relatively short” and the “time to reach peak levels” value was “quickly”. For the same compound, the reaction half time in series [4] is recorded as 230 min.

Values taken from patent US20190262291A1, “METHODS AND COMPOSITIONS FOR ALLEVIATING MYOPATHY” (priority 2016, published 2019).
